According to ChEMBL document CHEMBL1201862, “PubChem BioAssay data set” (2004):
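These data come from cells grown in 96-well plates and exposed to compound for 48 hours at five concentrations. GI50 = concentration required for 50% inhibition of growth.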 Activity calls are given as the source filed them. Cut-off read from the data, not from the text of the source: active = GI50 up to about 1.1 µM and inactive = higher.

Key:
Test in all cases: NCI anticancer screen, dose series, 48 h
786-0 = tested on: 786-0
A498 = tested on: A498
A549 = tested on: A549
ACHN = tested on: ACHN
CCRF-CEM = tested on: CCRF-CEM
COLO 205 = tested on: COLO 205
DLD-1 = tested on: DLD-1
DMS-114 = tested on: DMS-114
DMS-273 = tested on: DMS-273
EKVX = tested on: EKVX
HCC 2998 = tested on: HCC 2998
HCT-116 = tested on: HCT-116
HCT-15 = tested on: HCT-15
HL-60 = tested on: HL-60
HOP-18 = tested on: HOP-18
HOP-62 = tested on: HOP-62
HOP-92 = tested on: HOP-92
HT-29 = tested on: HT-29
IGROV-1 = tested on: IGROV-1
K562 = tested on: K562
KM-20L2 = tested on: KM-20L2
KM12 = tested on: KM12
LOX IMVI = tested on: LOX IMVI
LXFL 529 = tested on: LXFL 529
M14 = tested on: M14
M19-MEL = tested on: M19-MEL
MOLT-4 = tested on: MOLT-4
Malme-3M = tested on: Malme-3M
NCI-H226 = tested on: NCI-H226
NCI-H23 = tested on: NCI-H23
NCI-H460 = tested on: NCI-H460
NCI-H522 = tested on: NCI-H522
OVCAR-3 = tested on: OVCAR-3
OVCAR-4 = tested on: OVCAR-4
OVCAR-8 = tested on: OVCAR-8
RPMI-8226 = tested on: RPMI-8226
RXF 393 = tested on: RXF 393
SF-268 = tested on: SF-268
SF-295 = tested on: SF-295
SF-539 = tested on: SF-539
SK-MEL-28 = tested on: SK-MEL-28
SK-MEL-2 = tested on: SK-MEL-2
SK-OV-3 = tested on: SK-OV-3
SN12C = tested on: SN12C
SNB-19 = tested on: SNB-19
SNB-75 = tested on: SNB-75
SNB-78 = tested on: SNB-78
SR = tested on: SR
SW-620 = tested on: SW-620
TK-10 = tested on: TK-10
U-251 = tested on: U-251
UACC-257 = tested on: UACC-257
UACC-62 = tested on: UACC-62
UO-31 = tested on: UO-31
XF498 = tested on: XF498
CAKI-1 = tested on: CAKI-1
OVCAR-5 = tested on: OVCAR-5
SK-MEL-5 = tested on: SK-MEL-5

`CCN1C(=O)N(C)C(O)c2c1nc1ccccn1c2=O` (stereo not drawn) was tested, and the GI50 (786-0) was 28.5 µM (inactive), the GI50 (A498) was 25.6 µM (inactive) and the GI50 (A549) was 34.2 µM (inactive). The GI50 (ACHN) was 0.232 µM (active), the GI50 (CCRF-CEM) was 27.8 µM (inactive) and the GI50 (COLO 205) was 21.2 µM (inactive). For the same compound, the GI50 (DLD-1) was 31.4 µM (inactive), the GI50 (DMS-114) was 7.4 µM (inactive) and the GI50 (DMS-273) was 19.5 µM (inactive). For the same compound, the GI50 (EKVX) was 21.2 µM (inactive), the GI50 (HCC 2998) was 20.3 µM (inactive) and the GI50 (HCT-116) was 28.6 µM (inactive). For the same compound, the GI50 (HCT-15) was 32.2 µM, the GI50 (HL-60) was 24.9 µM (inactive) and the GI50 (HOP-18) was 22.3 µM (inactive). For the same compound, the GI50 (HOP-62) was 28.1 µM (inactive), the GI50 (HOP-92) was 25.6 µM (inactive) and the GI50 (HT-29) was 27.6 µM (inactive). For the same compound, the GI50 (IGROV-1) was 32.7 µM (inactive), the GI50 (K562) was 34 µM (inactive) and the GI50 (KM-20L2) was 25.5 µM (inactive). The GI50 (KM12) was 36.5 µM (inactive), the GI50 (LOX IMVI) was 17.5 µM (inactive) and the GI50 (LXFL 529) was 29 µM (inactive). The GI50 (M14) was 32.1 µM (inactive), the GI50 (M19-MEL) was 28.4 µM (inactive) and the GI50 (MOLT-4) was 32.1 µM (inactive). For the same compound, the GI50 (Malme-3M) was 38.6 µM (inactive), the GI50 (NCI-H226) was 60.7 µM (inactive) and the GI50 (NCI-H23) was 24.9 µM (inactive). For the same compound, the GI50 (NCI-H460) was 20.6 µM (inactive), the GI50 (NCI-H522) was 25.3 µM (inactive) and the GI50 (OVCAR-3) was 26.1 µM (inactive). The GI50 (OVCAR-4) was 33 µM (inactive), the GI50 (OVCAR-8) was 18.9 µM (inactive) and the GI50 (RPMI-8226) was 27 µM (inactive). For the same compound, the GI50 (RXF 393) was 23 µM (inactive), the GI50 (SF-268) was 25.4 µM (inactive) and the GI50 (SF-295) was 28 µM (inactive). The GI50 (SF-539) was 24.6 µM (inactive), the GI50 (SK-MEL-28) was 27.4 µM (inactive) and the GI50 (SK-MEL-2) was 22.2 µM (inactive). The GI50 (SK-OV-3) was 26.1 µM (inactive), the GI50 (SN12C) was 23.3 µM (inactive) and the GI50 (SNB-19) was 39.4 µM (inactive). The GI50 (SNB-75) was 20.6 µM (inactive), the GI50 (SNB-78) was 28.1 µM (inactive) and the GI50 (SR) was 29.1 µM (inactive). The GI50 (SW-620) was 35.9 µM (inactive), the GI50 (TK-10) was 22.1 µM (inactive) and the GI50 (U-251) was 30.8 µM (inactive). The GI50 (UACC-257) was 40.1 µM (inactive), the GI50 (UACC-62) was 0.103 µM (active) and the GI50 (UO-31) was 47.6 µM (inactive). The GI50 (XF498) was 26.2 µM (inactive).

For `CN(C)CCC(=O)c1ccccc1`, the GI50 (786-0) was 20 µM (inactive), the GI50 (A498) was > 71.6 µM (inactive) and the GI50 (A549) was > 65.2 µM (inactive). For the same compound, the GI50 (ACHN) was > 57.5 µM (inactive), the GI50 (CAKI-1) was 18.9 µM (inactive) and the GI50 (CCRF-CEM) was 23.4 µM (inactive). The GI50 (COLO 205) was 28.9 µM (inactive), the GI50 (DLD-1) was 19.8 µM (inactive) and the GI50 (DMS-114) was > 39.1 µM (inactive). For the same compound, the GI50 (DMS-273) was > 58.2 µM (inactive), the GI50 (EKVX) was > 55.6 µM (inactive) and the GI50 (HCC 2998) was > 58.1 µM (inactive). The GI50 (HCT-116) was 28.4 µM (inactive), the GI50 (HCT-15) was 24.1 µM and the GI50 (HL-60) was 11.3 µM (inactive). For the same compound, the GI50 (HOP-18) was > 56.4 µM (inactive), the GI50 (HOP-62) was > 100 µM (inactive) and the GI50 (HOP-92) was 24.5 µM (inactive). The GI50 (HT-29) was > 47.8 µM (inactive), the GI50 (IGROV-1) was > 58.5 µM (inactive) and the GI50 (K562) was 27.6 µM (inactive). For the same compound, the GI50 (KM-20L2) was > 43.8 µM (inactive), the GI50 (KM12) was 32.5 µM (inactive) and the GI50 (LOX IMVI) was 36.4 µM (inactive). For the same compound, the GI50 (LXFL 529) was 26.3 µM (inactive), the GI50 (M14) was 32.4 µM (inactive) and the GI50 (M19-MEL) was 33.2 µM (inactive). For the same compound, the GI50 (MOLT-4) was 21.5 µM (inactive), the GI50 (Malme-3M) was 16.1 µM (inactive) and the GI50 (NCI-H226) was > 58.7 µM (inactive). For the same compound, the GI50 (NCI-H23) was > 61.8 µM (inactive), the GI50 (NCI-H460) was > 58.5 µM (inactive) and the GI50 (NCI-H522) was 0.693 µM (active). For the same compound, the GI50 (OVCAR-3) was 42.7 µM (inactive), the GI50 (OVCAR-4) was 46.7 µM (inactive) and the GI50 (OVCAR-5) was > 43.7 µM (inactive). For the same compound, the GI50 (OVCAR-8) was 36.6 µM (inactive), the GI50 (RPMI-8226) was 9.04 µM (inactive) and the GI50 (RXF 393) was 38.3 µM (inactive). For the same compound, the GI50 (SF-268) was > 58.5 µM (inactive), the GI50 (SF-295) was > 100 µM (inactive) and the GI50 (SF-539) was > 58.1 µM (inactive). The GI50 (SK-MEL-28) was 41 µM (inactive), the GI50 (SK-MEL-2) was > 62.8 µM (inactive) and the GI50 (SK-MEL-5) was > 43 µM (inactive). For the same compound, the GI50 (SK-OV-3) was > 57.1 µM (inactive), the GI50 (SN12C) was > 58.6 µM (inactive) and the GI50 (SNB-19) was > 100 µM (inactive). For the same compound, the GI50 (SNB-75) was > 59.4 µM (inactive), the GI50 (SNB-78) was 38.2 µM (inactive) and the GI50 (SR) was 35.1 µM (inactive). The GI50 (SW-620) was 16.8 µM (inactive), the GI50 (TK-10) was > 56.5 µM (inactive) and the GI50 (U-251) was > 56.2 µM (inactive). For the same compound, the GI50 (UACC-257) was 37.8 µM (inactive), the GI50 (UACC-62) was > 56.2 µM (inactive) and the GI50 (UO-31) was > 56.9 µM (inactive). For the same compound, the GI50 (XF498) was 19.4 µM (inactive).
